The values that follow come from patent US5306819A, “Certain aryl a cycloalkyl fused imidazopyrazinols; and new class of GABA brain receptor ligands” (Neurogen Corporation, priority 1992, dated 1994).

The target in one experiment is GABAa receptor. Nature of the experiment: assay for GABAa receptor activity: inhibition of 3H-RO15-1788 (3H-Flumazenil) binding to rat cortical tissue. The settings on record: 3H-RO15-1788 0.5 nM, 30 min at 4°. Here is the method:
The pharmaceutical utility of compounds of this invention are indicated by the following assay for GABAa receptor activity.
Assays are carried out as described in Thomas and Tallman (J. Bio. Chem. 156: 9838-9842, J. Neurosci. 3:433-440, 1983). Rat cortical tissue is dissected and homogenized in 25 volumes (w/v) of 0.05M Tris HCl buffer (pH 7.4 at 4° C.). The tissue homogenate is centrifuged in the cold (4°) at 20,000×g for 20'. The supernatant is decanted and the pellet is rehomogenized in the same volume of buffer and again centrifuged at 20,000×g. The supernatant is decanted and the pellet is frozen at -20° C. overnight. The pellet is then thawed and rehomogenized in 25 volumes (original wt/vol) of buffer and the procedure is carried out twice. The pellet is finally resuspended in 50 volumes (w/vol of 0.05M Tris HCl buffer (pH 7.4 at […]).
Incubations contain […] of tissue homogenate, […] of radioligand 0.5 nM (^3 H-RO15-1788 [^3 H-Flumazenil] specific activity 80 Ci/mmol), drug or blocker and buffer to a total volume of […]. Incubations are carried for 30 min at 4° then are rapidly filtered through GFB filters to separate free and bound ligand. Filters are washed twice with fresh 0.05M Tris HCl buffer (pH 7.4 at 4° C.) and counted in a liquid scintillation counter. […] diazepam is added to some tubes to determine nonspecific binding. Data are collected in triplicate determinations, averaged and % inhibition of total specific binding is calculated. Total Specific Binding=Total-Nonspecific. In some cases, the amounts of unlabeled drugs is varied and total displacement curves of binding are carried out. Data are converted to a form for the calculation of IC50 and Hill Coefficient (nH).
Usually IC50 stands for the concentration that inhibits the measured activity by half. A low value points to greater potency. Turning to `O=c1c(-c2ccccc2F)nc2c[nH]c3c(n1-2)CCCC3` [Compound 1, 2-(2-fluorophenyl)-imidazo-[1,2-a]-6,7,8,9-tetrahydroquinoxalin-1(5H)-one], the half-maximal inhibitory concentration (IC50) came to 11 nM.

The molecule `COc1ccc(-c2nc3c[nH]c4c(n-3c2=O)CCCC4)c(F)c1` [Compound 8, 2-(2-Fluoro-4-methoxyphenyl)-imidazo-[1,2-a]-6,7,8,9-tetrahydroquinoxalin-1(5H)-one] registered an IC50 of 5.4 nM.

As to `COc1ccc(-c2nc3c[nH]c4c(n-3c2=O)CCCCC4)c(F)c1` [Compound 15, 2-(2-Fluoro-4-methoxyphenyl)-cyclohept[b]imidazo[2,1-f]pyrazin-1(5H)-one], the IC50 stood at 13 nM.

Regarding `COc1ccc(-c2nc3c[nH]c4c(n-3c2=O)CCC4)c(F)c1` [Compound 16, 2-(2-Fluoro-4-methoxyphenyl)-cyclopent[b]imidazo[2,1-f]pyrazin-1(5H)-one], the IC50 was found to be 15 nM. This IC50 and that of the molecule before are within 1.5-fold of each other.

For another experiment, the system named is GABA receptor.
Experiment: not given
The settings on record: Tallman et al., 1978; cited from earlier work.
As to `CN1CCc2cc3c(cc2[C@H]1[C@@H]1OC(=O)c2c1ccc1c2OCO1)OCO3` [(+) bicuculline], the “Enhancement of benzodiazepine binding by GABA agonists is blocked” value is “blocked”.

With `CN1CCc2cc3c(cc2[C@@H]1[C@H]1OC(=O)c2c1ccc1c2OCO1)OCO3` [(-) bicuculline], the “Enhancement of benzodiazepine binding by GABA agonists is blocked” value was “much less active”.
